According to patent US12466822B2, “Heterocyclic compounds as immunomodulators” (Incyte Corporation, priority 2016, dated 2025):
pIC50: −log10 of the molar value.

target: T1, PD-1/PD-L1 protein/protein interaction (recombinant human PD-L1 protein (19-238), recombinant human PD-1 protein (25-167)) (Homo sapiens, UniProt Q9NZQ7); assay: PD-1/PD-L1 Homogeneous Time-Resolved Fluorescence (HTRF) Binding Assay; conditions: 25° C., PBS buffer (pH 7.4), 40 minutes preincubation with inhibitors
T1 construct: Recombinant human PD-L1 protein (19-238) with a His-tag at the C-terminus; purchased AcroBiosystems PD1-H5229 (PD-L1-His); PD1-H5257 (PD-1-Fc)
Experimental: The assays were conducted in a standard black 384-well polystyrene plate with a final volume of 20 μL. Inhibitors were first serially diluted in DMSO and then added to the plate wells before the addition of other reaction components. The final concentration of DMSO in the assay was 1%. The assays were carried out at 25° C. in the PBS buffer (pH 7.4) with 0.05% Tween-20 and 0.1% BSA. Recombinant human PD-L1 protein (19-238) with a His-tag at the C-terminus was purchased from AcroBiosystems (PD1-H5229). Recombinant human PD-1 protein (25-167) with Fc tag at the C-terminus was also purchased from AcroBiosystems (PD1-H5257). PD-L1 and PD-1 proteins were diluted in the assay buffer and 10 μL was added to the plate well. Plates were centrifuged and proteins were preincubated with inhibitors for 40 minutes. The incubation was followed by the addition of 10 μL of HTRF detection buffer supplemented with Europium cryptate-labeled anti-human IgG (PerkinElmer-AD0212) specific for Fc and anti-His antibody conjugated to SureLight®-Allophycocyanin (APC, PerkinElmer-AD0059H). After centrifugation, the plate was incubated at 25° C. for 60 min. before reading on a PHERAstar FS plate reader (665 nm/620 nm ratio). Final concentrations in the assay were […], 10 nM PD-L1, 1 nM europium anti-human IgG and 20 nM anti-His-Allophycocyanin. IC50 determination was performed by fitting the curve of percent control activity versus the log of the inhibitor concentration using the GraphPad Prism 5.0 software.

T1 sequence (Q9NZQ7 19-238): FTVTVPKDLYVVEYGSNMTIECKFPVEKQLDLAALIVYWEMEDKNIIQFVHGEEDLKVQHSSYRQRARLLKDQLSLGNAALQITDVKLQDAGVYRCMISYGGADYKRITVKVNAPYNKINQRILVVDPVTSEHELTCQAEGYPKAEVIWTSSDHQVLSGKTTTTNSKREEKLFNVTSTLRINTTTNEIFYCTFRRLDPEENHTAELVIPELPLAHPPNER

pIC50, ≥ 8.00:
Cc1c(Nc2nccc3cc(CN4CC[C@H](O)C4)cnc23)cccc1-c1cccc(-c2nc3c(o2)CN(C(=O)CN(C)C)C3)c1C [Example 38, (S)-2-(dimethylamino)-1-(2-(3′-((3-((3-hydroxypyrrolidin-1-yl)methyl)-1,7-naphthyridin-8-yl)amino)-2,2′-dimethyl-[1,1′-biphenyl]-3-yl)-4,6-dihydro-5H-pyrrolo[3,4-d]oxazol-5-yl)ethan-1-one]
Cc1c(Nc2nccc3cc(CN4CC[C@@H](O)C4)cnc23)cccc1-c1cccc(-c2nc3c(o2)CN(C(=O)CN2CC(C(=O)O)C2)C3)c1C [Example 39, (R)-1-(2-(2-(3′-((3-((3-hydroxypyrrolidin-1-yl)methyl)-1,7-naphthyridin-8-yl)amino)-2,2′-dimethyl-[1,1′-biphenyl]-3-yl)-4,6-dihydro-5H-pyrrolo[3,4-d]oxazol-5-yl)-2-oxoethyl)azetidine-3-carboxylic acid]
Cc1c(Nc2nccc3cc(CN4CC[C@@H](O)C4)cnc23)cccc1-c1cccc(-c2nc3c(o2)CN(C(=O)CN2CC[C@H](C(=O)O)C2)C3)c1C [Example 40, (S)-1-(2-(2-(3′-((3-(((R)-3-hydroxypyrrolidin-1-yl)methyl)-1,7-naphthyridin-8-yl)amino)-2,2′-dimethyl-[1,1′-biphenyl]-3-yl)-4,6-dihydro-5H-pyrrolo[3,4-d]oxazol-5-yl)-2-oxoethyl)pyrrolidine-3-carboxylic acid]
Cc1c(Nc2nccc3cc(CN4CC[C@@H](O)C4)cnc23)cccc1-c1cccc(-c2nc3c(o2)CN(C(=O)CN2CC[C@@H](C(=O)O)C2)C3)c1C [Example 41, (R)-1-(2-(2-(3′-((3-(((R)-3-hydroxypyrrolidin-1-yl)methyl)-1,7-naphthyridin-8-yl)amino)-2,2′-dimethyl-[1,1′-biphenyl]-3-yl)-4,6-dihydro-5H-pyrrolo[3,4-d]oxazol-5-yl)-2-oxoethyl)pyrrolidine-3-carboxylic acid]
Cc1c(Nc2nccc3cc(CN4CC[C@@H](O)C4)cnc23)cccc1-c1cccc(-c2nc3c(o2)CN(C(=O)CN2CCCC[C@H]2C(=O)O)C3)c1C [Example 42, (S)-1-(2-(2-(3′-((3-(((R)-3-hydroxypyrrolidin-1-yl)methyl)-1,7-naphthyridin-8-yl)amino)-2,2′-dimethyl-[1,1′-biphenyl]-3-yl)-4,6-dihydro-5H-pyrrolo[3,4-d]oxazol-5-yl)-2-oxoethyl)piperidine-2-carboxylic acid]
Cc1c(COc2cc(OCc3cncc(C#N)c3)c(CN3CCCC[C@H]3C(=O)O)cc2Cl)cccc1-c1cccc(Nc2nccc3cc(CN4CC[C@@H](O)C4)cnc23)c1C [Example 43, (S)-1-(5-chloro-2-((5-cyanopyridin-3-yl)methoxy)-4-((3′-((3-(((R)-3-hydroxypyrrolidin-1-yl)methyl)-1,7-naphthyridin-8-yl)amino)-2,2′-dimethyl-[1,1′-biphenyl]-3-yl)methoxy)benzyl)piperidine-2-carboxylic acid]
Cc1c(COc2cc(OCc3cncc(C#N)c3)c(CN3CC[C@@H](C(=O)O)C3)cc2Cl)cccc1-c1cccc(Nc2nccc3cc(CN4CC[C@@H](O)C4)cnc23)c1C [Example 44, (R)-1-(5-chloro-2-((5-cyanopyridin-3-yl)methoxy)-4-((3′-((3-(((R)-3-hydroxypyrrolidin-1-yl)methyl)-1,7-naphthyridin-8-yl)amino)-2,2′-dimethyl-[1,1′-biphenyl]-3-yl)methoxy)benzyl)pyrrolidine-3-carboxylic acid]
Cc1c(Nc2nccc3cc(CN4CC[C@@](C)(C(=O)O)C4)cnc23)cccc1-c1cccc(NC(=O)c2nc3c(n2C)CCNC3)c1Cl [Example 45, (R)-1-((8-(2′-Chloro-2-methyl-3′-(1-methyl-4,5,6,7-tetrahydro-1H-imidazo[4,5-c]pyridine-2-carboxamido)biphenyl-3-ylamino)-1,7-naphthyridin-3-yl)methyl)-3-methylpyrrolidine-3-carboxylic acid]
Cc1c(NC(=O)c2nc3c(n2C)CCN(C)C3)cccc1-c1cccc(Nc2nccc3cc(CN4CC[C@@H](C(=O)O)C4)cnc23)c1C [Example 46, (R)-1-((8-(3′-(1,5-dimethyl-4,5,6,7-tetrahydro-1H-imidazo[4,5-c]pyridine-2-carboxamido)-2,2′-dimethylbiphenyl-3-ylamino)-1,7-naphthyridin-3-yl)methyl)pyrrolidine-3-carboxylic acid]
Cc1c(Nc2nccc3cc(CN4CC[C@@H](O)C4)cnc23)cccc1-c1cccc(NC(=O)c2nc3c(n2C)CCN(C[C@H]2CC[C@H](C(=O)O)CC2)C3)c1Cl [Example 47, trans-4-((2-(2-chloro-3′-(3-(((R)-3-hydroxypyrrolidin-1-yl)methyl)-1,7-naphthyridin-8-ylamino)-2′-methylbiphenyl-3-ylcarbamoyl)-1-methyl-6,7-dihydro-1H-imidazo[4,5-c]pyridin-5(4H)-yl)methyl)cyclohexanecarboxylic acid]
Cc1c(Nc2nccc3cc(CN4CC[C@@H](O)C4)cnc23)cccc1-c1cccc(NC(=O)c2nc3c(n2C)CCN(C[C@H]2CC[C@@H](C(=O)O)CC2)C3)c1Cl [Example 48, cis-4-((2-(2-chloro-3′-(3-(((R)-3-hydroxypyrrolidin-1-yl)methyl)-1,7-naphthyridin-8-ylamino)-2′-methylbiphenyl-3-ylcarbamoyl)-1-methyl-6,7-dihydro-1H-imidazo[4,5-c]pyridin-5(4H)-yl)methyl)cyclohexanecarboxylic acid]
Cc1c(Nc2nccc3cc(CN4CCCC4)cnc23)cccc1-c1cccc(NC(=O)c2nc3c(n2C)CCN(C[C@H]2CC[C@@H](C(=O)O)CC2)C3)c1Cl [Example 49, cis-4-((2-(2-chloro-2′-methyl-3′-(3-(pyrrolidin-1-ylmethyl)-1,7-naphthyridin-8-ylamino)biphenyl-3-ylcarbamoyl)-1-methyl-6,7-dihydro-1H-imidazo[4,5-c]pyridin-5(4H)-yl)methyl)cyclohexanecarboxylic acid]
Cc1c(Nc2nccc3cc(CN[C@@H](C)CO)cnc23)cccc1-c1cccc(NC(=O)c2nc3c(n2C)CCN(C[C@H]2CC[C@H](C(=O)O)CC2)C3)c1Cl [Example 50, trans-4-((2-(2-chloro-3′-(3-(((S)-1-hydroxypropan-2-ylamino)methyl)-1,7-naphthyridin-8-ylamino)-2′-methylbiphenyl-3-ylcarbamoyl)-1-methyl-6,7-dihydro-1H-imidazo[4,5-c]pyridin-5(4H)-yl)methyl)cyclohexanecarboxylic acid]
Cc1c(Nc2nccc3cc(CN[C@H]4CCC[C@@H]4O)cnc23)cccc1-c1cccc(NC(=O)c2nc3c(n2C)CCN(C[C@H]2CC[C@H](C(=O)O)CC2)C3)c1Cl [Example 51, trans-4-((2-(2-chloro-3′-(3-(((1S,2S)-2-hydroxycyclopentylamino)methyl)-1,7-naphthyridin-8-ylamino)-2′-methylbiphenyl-3-ylcarbamoyl)-1-methyl-6,7-dihydro-1H-imidazo[4,5-c]pyridin-5(4H)-yl)methyl)cyclohexanecarboxylic acid]
Cc1c(Nc2nccc3cc(CN4CC[C@@H](O)C4)cnc23)cccc1-c1cccc(NC(=O)c2nc3c(n2C)CCN(C(C)CC(=O)O)C3)c1Cl (stereo partly drawn) [Example 54, 3-(2-(2-chloro-3′-(3-(((R)-3-hydroxypyrrolidin-1-yl)methyl)-1,7-naphthyridin-8-ylamino)-2′-methylbiphenyl-3-ylcarbamoyl)-1-methyl-6,7-dihydro-1H-imidazo[4,5-c]pyridin-5(4H)-yl)butanoic acid]
Cc1c(Nc2nccc3cc(CN4CC[C@H](O)C4)cnc23)cccc1-c1cccc(NC(=O)c2nc3c(n2C)CCN(C[C@H]2CC[C@@H](C(=O)O)CC2)C3)c1Cl [Example 55, cis 4-((2-(2-chloro-3′-(3-(((S)-3-hydroxypyrrolidin-1-yl)methyl)-1,7-naphthyridin-8-ylamino)-2′-methylbiphenyl-3-ylcarbamoyl)-1-methyl-6,7-dihydro-1H-imidazo[4,5-c]pyridin-5(4H)-yl)methyl)cyclohexanecarboxylic acid]
Cc1c(Nc2nccc3cc(CN4CC[C@@](C)(O)C4)cnc23)cccc1-c1cccc(NC(=O)c2nc3c(n2C)CCN(C[C@H]2CC[C@@H](C(=O)O)CC2)C3)c1Cl [Example 56, cis 4-((2-(2-chloro-3′-(3-(((R)-3-hydroxy-3-methylpyrrolidin-1-yl)methyl)-1,7-naphthyridin-8-ylamino)-2′-methylbiphenyl-3-ylcarbamoyl)-1-methyl-6,7-dihydro-1H-imidazo[4,5-c]pyridin-5(4H)-yl)methyl)cyclohexanecarboxylic acid]
